In patent publication US8637511B2, “Aminopyrimidines useful as kinase inhibitors” (Vertex Pharmaceuticals Incorporated, priority 2005, dated 2014):
Read-outs that look alike come from different tables or passages of the source.

Experiments:
JAK3 = target: T1, JAK3 (Homo sapiens, UniProt P52333); assay: biochemical
T1 sequence (P52333 1-1124): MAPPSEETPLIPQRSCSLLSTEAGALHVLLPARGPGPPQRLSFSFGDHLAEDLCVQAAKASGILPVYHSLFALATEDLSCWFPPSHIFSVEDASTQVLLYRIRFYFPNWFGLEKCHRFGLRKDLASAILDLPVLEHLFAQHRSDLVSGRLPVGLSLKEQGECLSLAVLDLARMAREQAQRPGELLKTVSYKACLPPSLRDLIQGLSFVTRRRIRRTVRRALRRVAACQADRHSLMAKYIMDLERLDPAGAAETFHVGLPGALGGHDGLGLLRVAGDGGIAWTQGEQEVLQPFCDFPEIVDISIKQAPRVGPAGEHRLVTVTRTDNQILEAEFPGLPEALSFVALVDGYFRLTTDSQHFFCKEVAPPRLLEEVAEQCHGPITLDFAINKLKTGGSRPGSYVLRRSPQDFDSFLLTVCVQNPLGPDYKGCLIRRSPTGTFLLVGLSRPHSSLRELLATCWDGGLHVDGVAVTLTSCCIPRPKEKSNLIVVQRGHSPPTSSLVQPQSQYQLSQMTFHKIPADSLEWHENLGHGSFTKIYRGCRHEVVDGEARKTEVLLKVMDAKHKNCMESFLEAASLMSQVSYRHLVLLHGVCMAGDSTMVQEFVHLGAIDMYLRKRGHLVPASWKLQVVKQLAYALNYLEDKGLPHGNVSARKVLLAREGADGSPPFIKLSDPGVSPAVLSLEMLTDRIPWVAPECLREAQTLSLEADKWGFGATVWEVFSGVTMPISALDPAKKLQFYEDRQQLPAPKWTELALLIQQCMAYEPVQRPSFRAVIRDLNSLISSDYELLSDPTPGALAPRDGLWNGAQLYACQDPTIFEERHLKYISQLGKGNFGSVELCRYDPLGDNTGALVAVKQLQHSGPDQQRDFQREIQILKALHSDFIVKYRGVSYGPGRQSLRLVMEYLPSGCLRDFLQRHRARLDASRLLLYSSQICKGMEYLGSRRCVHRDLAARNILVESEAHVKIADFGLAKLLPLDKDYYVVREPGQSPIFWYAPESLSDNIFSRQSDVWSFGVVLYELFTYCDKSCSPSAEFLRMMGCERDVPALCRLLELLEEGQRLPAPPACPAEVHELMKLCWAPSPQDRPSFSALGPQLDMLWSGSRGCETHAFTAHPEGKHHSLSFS

human Itk kinase = target: T2, human Itk kinase (Homo sapiens, UniProt Q08881); assay: Itk inhibition assay: radioactivity-based assay; assay type: biochemical; details: Ki(app)
T2 sequence (Q08881 1-620): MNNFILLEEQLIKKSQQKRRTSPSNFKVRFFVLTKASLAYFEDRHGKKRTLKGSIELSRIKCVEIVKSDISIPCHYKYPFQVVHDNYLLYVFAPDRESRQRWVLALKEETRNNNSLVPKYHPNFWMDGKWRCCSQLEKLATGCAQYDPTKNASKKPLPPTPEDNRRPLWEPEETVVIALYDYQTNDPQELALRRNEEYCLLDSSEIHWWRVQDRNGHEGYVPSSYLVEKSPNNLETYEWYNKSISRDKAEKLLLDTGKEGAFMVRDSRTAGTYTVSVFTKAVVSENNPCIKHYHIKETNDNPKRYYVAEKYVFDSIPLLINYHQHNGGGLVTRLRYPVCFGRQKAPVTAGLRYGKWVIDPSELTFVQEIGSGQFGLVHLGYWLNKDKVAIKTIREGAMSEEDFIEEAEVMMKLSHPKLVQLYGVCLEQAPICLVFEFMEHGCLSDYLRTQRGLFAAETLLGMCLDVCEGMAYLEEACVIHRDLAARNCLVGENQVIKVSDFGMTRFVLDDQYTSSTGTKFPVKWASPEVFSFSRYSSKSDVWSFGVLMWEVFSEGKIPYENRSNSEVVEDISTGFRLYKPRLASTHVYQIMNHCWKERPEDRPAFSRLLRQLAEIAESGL
In short: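 50 nM Itk with 3 μM SAM68 Δ332-443 peptide and 7.5 μM [γ-33P]ATP in MOPS pH 7.0, MgCl2, 25° C; compound (top 50 μM final, 2-fold dilutions, 2% DMSO) preincubated 10 min, reaction 10 min. Phosphocellulose filter capture and scintillation counting; Ki(app) by non-linear regression of initial rates.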

Colo205 cells = assay: Analysis of cell proliferation and viability; assay type: cell-based; details: Homo sapiens, COLO 205, Colo205 cells, read-out: IC50 value

Row | SMILES | Ki (JAK3; read-out: JAK3 Ki value) | Ki (human Itk kinase) | IC50 (Colo205 cells; incubated for 72 hours) | IC50 (Colo205 cells; incubated for 96 hours) | Ki (JAK3)
1 | CCC(=O)Nc1ccc(Sc2nc(Nc3cc(C)n[nH]3)cc(N3CC(O)(C(C)(C)C)C3)n2)cc1 [Compound 81] | ≤ 10 nM | ≤ 100 nM | ≤ 30 nM | ≤ 50 nM | –
2 | Cc1ccc(S(=O)(=O)Nc2ccc(Sc3nc(Nc4cc(C)[nH]n4)cc(N4CCC4)n3)cc2)cc1 [Compound 27] | – | 1000 to 2000 nM | – | > 1000 nM | 500 to 2000 nM
3 | Cc1ccc(C(=O)Nc2ccc(Sc3nc(Nc4cc(C)[nH]n4)cc(N4CCC4)n3)cc2)cc1 [Compound 28] | – | 100 to 1000 nM | – | 50 to 1000 nM | 10 to 500 nM
4 | Cc1cc(Nc2cc(N3CCC3)nc(Sc3ccc(NC(=O)Cc4cccc(Cl)c4)cc3)n2)[nH]n1 [Compound 58] | 500 to 2000 nM | 100 to 1000 nM | – | 50 to 1000 nM | –
5 | Cc1cc(Nc2cc(N3CCC3)nc(Sc3ccc(NC(=O)CC(F)(F)F)cc3)n2)n[nH]1 [Compound 40] | 10 to 500 nM | 100 to 1000 nM | 30 to 200 nM | 50 to 1000 nM | –
6 | CCC(=O)Nc1ccc(Sc2nc(C#CC(C)(C)N3CCC3)cc(Nc3cc(C)n[nH]3)n2)cc1 [Compound 77] | – | 100 to 1000 nM | – | 50 to 1000 nM | 500 to 2000 nM
7 | Cc1cc(Nc2cc(N3CC(C)C3)nc(Sc3ccc(NC(=O)c4ccccc4Cl)cc3)n2)n[nH]1 [Compound 39] | 10 to 500 nM | ≤ 100 nM | – | 50 to 1000 nM | –
8 | CC1=NN=C(Nc2cc(N3CCC3)nc(Sc3ccc(NC(=O)c4ccccc4)cc3)n2)C1 [Compound 52] | – | 100 to 1000 nM | – | 50 to 1000 nM | 10 to 500 nM
